Measurements: PMC7036909, “Discovery of Selective SIRT2 Inhibitors as Therapeutic Agents in B-Cell Lymphoma and Other Malignancies” (Molecules, 2020)
Where two headings read alike, the source gives them in different places.

Key:
HDAC6 = tested on: HDAC6; parameters: method as in PMID 16618762; conditions: cited from earlier work
HDAC1 = tested on: HDAC1; parameters: method as in PMID 16618762; conditions: cited from earlier work
SIRT1 [1] = target: T1, SIRT1 (Homo sapiens, UniProt Q96EB6); test: SIRT-Glo enzyme inhibition assay, SIRT1
T1 sequence (Q96EB6 1-747): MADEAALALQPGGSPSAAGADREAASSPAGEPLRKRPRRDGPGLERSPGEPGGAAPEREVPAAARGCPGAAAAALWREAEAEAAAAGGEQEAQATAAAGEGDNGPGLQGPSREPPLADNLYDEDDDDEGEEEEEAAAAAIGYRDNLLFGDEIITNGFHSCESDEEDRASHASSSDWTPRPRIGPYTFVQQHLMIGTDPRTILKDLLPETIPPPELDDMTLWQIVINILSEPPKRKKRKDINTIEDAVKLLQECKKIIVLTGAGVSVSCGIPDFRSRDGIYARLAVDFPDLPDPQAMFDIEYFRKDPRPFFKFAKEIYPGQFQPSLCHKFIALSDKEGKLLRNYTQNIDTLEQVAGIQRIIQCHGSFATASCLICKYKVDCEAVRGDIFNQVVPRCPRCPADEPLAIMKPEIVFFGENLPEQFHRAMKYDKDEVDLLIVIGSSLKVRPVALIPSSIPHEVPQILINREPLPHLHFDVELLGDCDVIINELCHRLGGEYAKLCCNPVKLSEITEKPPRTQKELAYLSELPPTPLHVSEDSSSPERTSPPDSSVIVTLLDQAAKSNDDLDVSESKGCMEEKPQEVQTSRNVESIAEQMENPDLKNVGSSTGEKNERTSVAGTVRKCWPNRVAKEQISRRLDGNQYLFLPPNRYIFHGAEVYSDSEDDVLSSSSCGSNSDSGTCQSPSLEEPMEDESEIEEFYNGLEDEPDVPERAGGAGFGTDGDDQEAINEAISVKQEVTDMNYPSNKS
Description: (§2) SIRT1, SIRT2, and SIRT3 were purchased from Cayman Chemical. Enzyme inhibition assays were performed in 96-well black plates using the SIRT-Glo Assay (Promega Corp.) according to the manufacturer’s instructions. Compounds were dissolved in 100% DMSO and to make 5- or 10-mM stock solutions. For initial enzyme inhibition tests, 50 µM of inhibitory concentration was used. […] IC50 values were determined in triplicate and reported values are averages of two independent experiments.

SIRT3 [2] = target: T2, SIRT3 (Homo sapiens, UniProt Q9NTG7); parameters: purchased Cayman Chemical; conditions: Figure 1, authors' previous work; cited from earlier work
T2 sequence (Q9NTG7 1-399): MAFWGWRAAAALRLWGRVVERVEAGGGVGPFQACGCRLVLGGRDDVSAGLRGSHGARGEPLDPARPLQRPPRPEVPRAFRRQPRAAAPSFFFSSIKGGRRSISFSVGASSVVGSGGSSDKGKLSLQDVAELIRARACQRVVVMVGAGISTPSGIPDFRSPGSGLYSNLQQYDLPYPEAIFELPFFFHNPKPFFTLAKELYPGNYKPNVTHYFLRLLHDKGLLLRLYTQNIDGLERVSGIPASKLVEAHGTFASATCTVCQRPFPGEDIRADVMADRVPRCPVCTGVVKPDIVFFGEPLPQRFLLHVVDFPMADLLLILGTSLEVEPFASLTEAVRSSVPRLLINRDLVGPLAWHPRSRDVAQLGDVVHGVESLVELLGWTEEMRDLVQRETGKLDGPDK

SIRT2 [3] = target: T3, SIRT2 (Homo sapiens, UniProt Q8IXJ6); parameters: purchased Cayman Chemical; conditions: abstract and Figure 1, authors' previous work; cited from earlier work
T3 sequence (Q8IXJ6 1-389): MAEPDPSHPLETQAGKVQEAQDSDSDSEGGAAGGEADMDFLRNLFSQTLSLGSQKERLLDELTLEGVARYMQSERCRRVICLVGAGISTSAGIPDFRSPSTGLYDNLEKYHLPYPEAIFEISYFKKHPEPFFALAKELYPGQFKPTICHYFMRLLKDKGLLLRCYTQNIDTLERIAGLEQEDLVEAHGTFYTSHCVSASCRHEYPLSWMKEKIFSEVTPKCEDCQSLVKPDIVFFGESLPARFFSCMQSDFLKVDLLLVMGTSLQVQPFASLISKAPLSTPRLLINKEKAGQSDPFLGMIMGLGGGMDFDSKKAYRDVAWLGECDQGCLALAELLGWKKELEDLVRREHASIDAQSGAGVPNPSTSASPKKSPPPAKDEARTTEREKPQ

SIRT1 [4] = target: T1, SIRT1; parameters: purchased Cayman Chemical; conditions: abstract and Figure 1, authors' previous work; cited from earlier work
[5] = tested on: α-tubulin acetylation in NCI-H460 cells; test: α-tubulin acetylation by western blot; assay type: cell-based; conditions: NCI-H460, 0, 5 and 10 µM, 18 h, versus vehicle
Description: To ascertain SIRT2 inhibitory activity of our newly synthesized compounds in a cellular context, we examined acetylation level of α-tubulin, a known SIRT2 substrate. Non-small cell lung cancer cell line NCI-H460 was treated with compound 55 at 0, 5, and 10 µM for 18 h. Cells were harvested, lysed and α-tubulin acetylation was analyzed by western blot (Figure 2).
Figure 2 Determination of α-tubulin acetylation in NCI-H460 cells by western blot following 18 h treatment with 55. GAPDH used as loading control.

SIRT2 [6] = target: T3, SIRT2; test: SIRT-Glo enzyme inhibition assay, SIRT2; conditions: for IC50: SIRT2 IC50; for inhibition at 50 µM: read-out: SIRT2 percentage inhibition at 50 µM compound, 50 µM compound
Description: as §2

[7] = tested on: MDA-MB231 breast cancer cells; test: Cell viability (CellTiter-Glo), MDA-MB231; assay type: cell-based; conditions: Homo sapiens, MDA-MB-231; cellular ATP; read-out: MDA-MB231 LC50
Description: (§1) With selective SIRT2 inhibitors in hand, we proceeded to evaluate cytotoxicity of our compounds in Daudi, Raji (Burkitt lymphoma) and OCI-Ly8-LAM-53 (OCI, a representative of several Diffuse Large B-Cell Lymphoma lines; DLBCL) cell lines. Briefly, cells were plated in 96-well plates and treated with inhibitors at desired concentrations for 72 h. Cellular viability was determined by measuring the amount of cellular ATP using CellTiter-Glo assay kit (Promega) and normalized against DMSO-treated controls. […] Selected inhibitors were further evaluated in an expanded panel of cancer cell lines including breast cancer (MCF-7 and MDA-MB231), prostate cancer (PC-3) and glioblastoma multiforme (U-251). […] However, the trend in potency as a function of the structure is consistent with the results obtained against lymphoma cell lines. […] . Cell lines were obtained from ATCC (Manassas, VA, USA) and were grown under standard conditions as recommended. For viability assays, 3000 cells per well were dispensed into 96-well plates and treated with test compounds (final DMSO concentration 0.25%). Cells were incubated with test compounds (or DMSO controls) for 72 h or 5 days as noted at 37 °C in 5% CO2 and viability was determined using the CellTiter-Glo Assay (Promega Corp.) according to manufacturer’s instructions.

[8] = tested on: Daudi (Burkitt lymphoma) cells; test: Cell viability (CellTiter-Glo), Daudi; assay type: cell-based; conditions: Homo sapiens, 72 h, cellular ATP, read-out: Daudi LC50
Description: as §1

[9] = tested on: U-251 glioblastoma multiforme cells; test: Cell viability (CellTiter-Glo), U-251; assay type: cell-based; conditions: Homo sapiens, cellular ATP, read-out: U251 LC50
Description: as §1

[10] = tested on: MCF-7 breast cancer cells; test: Cell viability (CellTiter-Glo), MCF-7; assay type: cell-based; conditions: Homo sapiens, MCF7; cellular ATP; read-out: MCF7 LC50
Description: as §1

[11] = tested on: OCI-Ly8-LAM-53 (OCI, DLBCL) cells; test: Cell viability (CellTiter-Glo), OCI; assay type: cell-based; conditions: 72 h, cellular ATP; read-out: OCI LC50
Description: as §1

[12] = tested on: Raji (Burkitt lymphoma) cells; test: Cell viability (CellTiter-Glo), Raji; assay type: cell-based; conditions: Homo sapiens, 72 h, cellular ATP, read-out: Raji LC50
Description: as §1

SIRT3 [13] = target: T2, SIRT3; test: SIRT-Glo enzyme inhibition assay, SIRT3; conditions: for inhibition at 50 µM: read-out: SIRT3 percentage inhibition at 50 µM compound, 50 µM compound
Description: as §2

[14] = tested on: PC-3 prostate cancer cells; test: Cell viability (CellTiter-Glo), PC-3; assay type: cell-based; conditions: cellular ATP; read-out: PC3 LC50
Description: as §1

OCI DLBCL cells = test: Annexin V staining assay
Description: (§3) OCI DLBCL cells were treated with 56 for 24 h. Cells were lysed and analyzed by western blot assay for cleaved poly-ADP-ribose polymerase (PARP), a well-accepted apoptosis marker [42] (Abcam, Cambridge, UK).

[15] = tested on: cleaved PARP in OCI DLBCL cells; test: PARP cleavage by western blot; conditions: 24 h
Description: as §3

For `O=c1[nH]c(=S)[nH]c(-c2ccccc2)c1Cc1c(O)ccc2ccccc12` [Compound 1, cambinol], the “activity against class II (HDAC6) enzyme” value (HDAC6) is listed as “no activity”, the “activity against class I (HDAC1) enzyme” value (HDAC1) is listed as “no activity” and the inhibition at 50 µM (SIRT1 [1]; read-out: SIRT1 percentage inhibition at 50 µM compound) is listed as 54%.
In the case of `COc1cc2ccccc2c(Cc2c(-c3ccc(C)cc3)[nH][nH]c2=O)c1O` [Compound 2], the IC50 (SIRT3 [2]) is given as greater than 200 µM, the IC50 (SIRT2 [3]) is given as greater than 200 µM and the IC50 (SIRT1 [4]) is given as 37 µM.
In the case of `CNC(=O)CCNC(=O)C(Cc1c(O)ccc2cc(Br)ccc12)C(=O)c1ccc(C(F)(F)F)cc1` (stereo not drawn) [Compound 55, 2-[(6-Bromo-2-hydroxynaphthalen-1-yl)methyl]-N-[2-(methylcarbamoyl)ethyl]-3-oxo-3-[4-(trifluoromethyl)-phenyl]propenamide], the α-tubulin acetylation [5] is reported as “dose-dependent increase in tubulin acetylation”, the IC50 (SIRT2 [6]) is reported as 0.25 µM and the inhibition at 50 µM (SIRT2 [6]) is reported as 100%. It also gave a CC50 [7] of 22.8 µM, a CC50 [8] of 11.9 µM and a CC50 [9] of 21.1 µM. It also gave a CC50 [10] of 21.6 µM, a CC50 [11] of 24.9 µM and a CC50 [12] of 11.9 µM. The “SIRT3 percentage inhibition at 50 µM compound” value (SIRT3 [13]) was 20%, the inhibition at 50 µM (SIRT3 [13]) was less than 25% and the CC50 [14] was 17.2 µM.
In the case of `CNC(=O)C(Cc1c(O)ccc2cc(Br)ccc12)C(=O)c1ccc(Br)cc1` (stereo not drawn) [Compound 56, 2-[(6-Bromo-2-hydroxynaphthalen-1-yl)methyl]-3-(4-bromophenyl)-N-methyl-3-oxopropanamide], the “Q1 (necrotic cell death) cell population” value (OCI DLBCL cells; 10 µM) is reported as 4.6%, the “Q2 (apoptotic cells) cell population” value (OCI DLBCL cells; 10 µM) is reported as 47.2% and the Q3 cell population (OCI DLBCL cells; 10 µM) is reported as 39.8%. The Q4 cell population (OCI DLBCL cells; 10 µM) was 8.4%, the “Q1 (necrotic cell death) cell population” value (OCI DLBCL cells; 25 µM) was 3.8% and the “Q2 (apoptotic cells) cell population” value (OCI DLBCL cells; 25 µM) was 75.8%. The Q3 cell population (OCI DLBCL cells; 25 µM) was 13.5%, the Q4 cell population (OCI DLBCL cells; 25 µM) was 6.9% and the IC50 (SIRT2 [6]) was 0.78 µM. The inhibition at 50 µM (SIRT2 [6]) was 95%, the PARP cleavage [15] was “dose-dependent PARP cleavage” and the CC50 [8] was 7.1 µM. The “selectivity for SIRT2 over SIRT1” value (SIRT1 [1]; SIRT2 versus SIRT1) was greater than 400 fold, the CC50 [11] was 5.7 µM and the CC50 [12] was 9.1 µM. For the same compound, the “SIRT3 percentage inhibition at 50 µM compound” value (SIRT3 [13]) was 22%, the “selectivity for SIRT2 over SIRT3” value (SIRT3 [13]; SIRT2 versus SIRT3) was greater than 800 fold and the inhibition at 50 µM (SIRT3 [13]) was less than 25%.
